Here are results for eight molecules from patent US10059973B2, “Carbohydrate esters as inducers for gene expression” (priority 2012, dated 2018).

In one experiment the test system is T. reesei Rut-C30. The experiment is described as follows: Protein (cellulase) induction in T. reesei Rut-C30 shake-flask culture, CMC endo-glucanase activity assay. It is filed as cell-based, Trichoderma reesei. As to conditions: for Cellulase activity at day 3 / Cellulase activity at day 3 (specific induction power, U/mg inducer): 2% glucose as carbon source. From the text: To prepare for protein induction studies using Trichoderma, a citrate minimal media was first prepared. The media composition, as modified from England et al. (U.S. Pat. […] The final pH was adjusted to 5.50 using NaOH. […] It was obtained from ATCC (56765) and developed as a catabolic de-repressed strain from classic mutagenesis of parent strain NG14 and the wild type […] al., BMC Genomics, 9:327, (2008)). To propagate Trichoderma, the freeze-dried stock from ATCC was first dissolved in sterile deionized water and then transferred onto a PDA (potato dextrose agar) plate (Teknova […]) using a sterile loop. The PDA plate was maintained at room temperature under white fluorescent light and after approximately 7 days, green Trichoderma spores could be seen. In addition, 60% (w/v) glucose stock was prepared and used both as control and as the carbon source for Trichoderma growth. […] Bacteriol., 73:269-278, (1957)).

The test system of experiment [1] is Aspergillus niger (NRRL 330). Description: Protein (amylase) induction in Aspergillus niger culture, amylase activity assay. The experiment is classed as cell-based. To be noted: inducer 0.05 g/L; 1% sorbitol as carbon source; 24 hours after inducer addition. Here is the method:
The procedure of preparing maltose acetate chemically and subsequent sample recovery follows the same procedure described in Example 4. […] Aspergillus niger (NRRL 330), obtained from ARS culture collection, was maintained on a PDA plate and allowed to sporulate for a week at room temperature. For inoculation, a 2 cm by 2 cm area agar plug was first removed and suspended in 5 mL sterile water. […] After additional 24 hours, the cultures were assayed for amylase activity following similar procedures to those detailed by Barton et al. (J.

The subject of experiment [2] is cellulase gene promoter in Trichoderma reesei. As to conditions: cited from earlier work.
The next experiment has as its system Pullularia pullulans. As to conditions: cited from earlier work.
A further experiment deals with Penicillium purpurogenum. As to conditions: cited from earlier work.

Take “6″ acetylated lactose monoester [Purified lactose monoacetate]”: the “Cellulase activity at day 3” value is on record as 2.05 U/mL in the experiment with T. reesei Rut-C30 (inducer 0.09 g/L), 10.1 U/mL with T. reesei Rut-C30 (inducer 0.51 g/L) and 14.0 U/mL in the experiment on T. reesei Rut-C30 (inducer 1.05 g/L). Also, the “Cellulase activity at day 3 (specific induction power, U/mg inducer)” value with T. reesei Rut-C30 (inducer 0.09 g/L) was determined as 22.0 U/mg; in the experiment on T. reesei Rut-C30 (inducer 0.51 g/L), 19.9 U/mg; in the experiment with T. reesei Rut-C30 (inducer 1.05 g/L) it was 13.3 U/mg. The “specific induction activity relative to unmodified lactose” value is listed as “approximately 34 times” with T. reesei Rut-C30 (inducer 0.09 g/L, day 3); around 31 times with T. reesei Rut-C30 (inducer 0.51 g/L, day 3); around 21 times with T. reesei Rut-C30 (inducer 1.05 g/L, day 3).

For the molecule `OC[C@H]1O[C@H](O[C@H]2[C@H](O)[C@@H](O)[C@H](O)O[C@@H]2CO)[C@H](O)[C@@H](O)[C@@H]1O` [Maltose, maltose], in experiment [1], the “Amylase activity at day 3” value is on record as 2.11 U/mL and the “Amylase activity at day 3 (specific induction power, U/mg inducer)” value was found to be 44.0 U/mg.

For `CC(=O)OC[C@H]1O[C@@H](O[C@@H]2[C@@H](O)[C@H](O)[C@@H](COC(C)=O)O[C@@H]2O)[C@H](O)[C@@H](O)[C@@H]1O` [Purified sophorose diacetate, 6′ and 6″ acetylated alpha-sophorose diester], in the experiment on T. reesei Rut-C30 (inducer 0.03 g/L), the “Cellulase activity at day 3” value came out at 6.33 U/mL and the “Cellulase activity at day 3 (specific induction power, U/mg inducer)” value is 211.0 U/mg. The “specific induction power relative to sophorose” value with T. reesei Rut-C30 (inducer 0.03 g/L, day 3) is around 8 times. For the same molecule, in the experiment with T. reesei Rut-C30 (inducer 0.12 g/L), the “Cellulase activity at day 3” value worked out at 23.2 U/mL and the “Cellulase activity at day 3 (specific induction power, U/mg inducer)” value amounted to 193.3 U/mg. Also, the “specific induction power relative to unmodified sophorose” value in the experiment on T. reesei Rut-C30 (inducer 0.12 g/L, day 3) is given as around 7 times.

For the molecule `O=C[C@H](O)[C@@H](O)[C@H](O[C@@H]1O[C@H](CO)[C@@H](O)[C@H](O)[C@H]1O)[C@H](O)CO` [cellobiose, reference compound], in the experiment on T. reesei Rut-C30 (inducer 1.0 g/L), the “Cellulase activity at day 3” value amounted to 0.34 U/mL and the “Cellulase activity at day 3 (specific induction power, U/mg inducer)” value worked out at 0.34 U/mg.

With `OC[C@H]1O[C@@H](O[C@H]2[C@H](O)[C@@H](O)C(O)O[C@@H]2CO)[C@H](O)[C@@H](O)[C@H]1O` (stereo partly drawn) [lactose, D-lactose, reference compound], in the experiment on T. reesei Rut-C30 (inducer 1.0 g/L), the “Cellulase activity at day 3” value is listed as 0.64 U/mL and the “Cellulase activity at day 3 (specific induction power, U/mg inducer)” value stood at 0.64 U/mg.

As for `OC[C@H]1O[C@@H](O[C@H]2C(O)O[C@H](CO)[C@@H](O)[C@@H]2O)[C@H](O)[C@@H](O)[C@@H]1O` (stereo partly shown) [sophorose, reference compound], in the experiment with T. reesei Rut-C30 (inducer 0.13 g/L), the “Cellulase activity at day 3” value turned out to be 3.58 U/mL and the “Cellulase activity at day 3 (specific induction power, U/mg inducer)” value amounted to 26.9 U/mg. Moreover, in the experiment on T. reesei Rut-C30 (inducer 1.3 g/L), the “Cellulase activity at day 3” value is on record as 15.0 U/mL and the “Cellulase activity at day 3 (specific induction power, U/mg inducer)” value was 11.2 U/mg. Also, the “activity as cellulase inducer relative to cellobiose” value in experiment [2] is 2500 times.

As for Sucrose monopalmitate, in the experiment on Pullularia pullulans, the “induced sucrase yield relative to sucrose” value is 80 times.

mono-O-acetyl cellobiose: the “effectiveness at inducing cellulase (in words)” value in the experiment on Penicillium purpurogenum is given as “the most active inducer tested”.
